Measurements reported in patent US9464092B2, “Transient protection of normal cells during chemotherapy” (G1 Therapeutics, Inc., priority 2013, dated 2016).

Key:
Type in all cases: biochemical
CDK4/CyclinD1 = CDK4/CyclinD1 (Homo sapiens (Human), UniProt P11802); experiment: CDK4/CyclinD1 kinase assay (Nanosyn, Caliper microfluidic); details: Table 2; read-out: CDK4/CycD1 IC50
Experimental: (§1) Selected compounds disclosed herein were tested in CDK4/cyclinD1, CDK6/CycD3 CDK2/CycA and CDK2/cyclinE kinase assays by Nanosyn (Santa Clara, Calif.) to determine their inhibitory effect on these CDKs. The assays were performed using microfluidic kinase detection technology (Caliper Assay Platform). The compounds were tested in 12-point dose-response format in singlicate at Km for ATP. Phosphoacceptor substrate peptide concentration used was 1 μM for all assays and Staurosporine was used as the reference compound for all assays. Specifics of each assay are as described below:
CDK4/CyclinD1: Enzyme concentration: 1 nM; ATP concentration: 200 μM; Incubation time: 10 hr.

CDK2/CyclinE = CDK2/CyclinE (Homo sapiens (Human), UniProt P24941); experiment: CDK2/CyclinE kinase assay (Nanosyn, Caliper microfluidic); details: Table 2; for IC50: read-out: CDK2/CycE IC50
Experimental: as §1, with “assays.” for “assays. Specifics of each assay are as described below:”

CDK2/CyclinA = CDK2/CyclinA (Homo sapiens (Human), UniProt P24941); experiment: CDK2/CyclinA kinase assay (Nanosyn, Caliper microfluidic); details: Table 2; for IC50: read-out: CDK2/CycA IC50
Experimental: as §1
CDK2/CyclinA: Enzyme concentration: 0.2 nM; ATP concentration: 50 μM; Incubation time: 3 hr.

CDK4/CyclinD1, sequence (P11802 whole entry, species assumed): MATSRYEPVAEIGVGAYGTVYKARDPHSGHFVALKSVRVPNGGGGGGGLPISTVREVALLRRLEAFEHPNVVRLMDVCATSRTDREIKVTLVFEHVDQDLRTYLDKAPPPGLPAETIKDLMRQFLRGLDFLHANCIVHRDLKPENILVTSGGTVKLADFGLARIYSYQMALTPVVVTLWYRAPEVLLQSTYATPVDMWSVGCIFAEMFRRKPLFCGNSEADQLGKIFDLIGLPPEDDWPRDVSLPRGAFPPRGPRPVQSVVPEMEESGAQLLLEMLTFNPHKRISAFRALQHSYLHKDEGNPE
CDK4/CyclinD1, sequence (P24385 whole entry partner, species assumed): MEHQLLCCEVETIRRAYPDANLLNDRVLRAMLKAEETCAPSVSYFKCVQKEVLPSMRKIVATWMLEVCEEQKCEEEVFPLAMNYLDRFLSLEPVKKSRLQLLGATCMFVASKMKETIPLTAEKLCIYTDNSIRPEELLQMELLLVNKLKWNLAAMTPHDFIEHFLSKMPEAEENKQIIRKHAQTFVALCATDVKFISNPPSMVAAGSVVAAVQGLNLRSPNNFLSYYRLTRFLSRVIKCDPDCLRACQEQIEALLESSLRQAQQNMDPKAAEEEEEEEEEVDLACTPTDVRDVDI

| Compound | IC50 (CDK4/CyclinD1) [nM] | Fold Selectivity (CDK2/CycE/CDK4) (CDK2/CyclinE) | IC50 (CDK2/CyclinE) [nM] | Fold Selectivity (CDK2/CycA/CDK4) (CDK2/CyclinA) | IC50 (CDK2/CyclinA) [nM] |
| --- | --- | --- | --- | --- | --- |
| C[C@H](O)CN1CCN(c2ccc(Nc3ncc4cc5n(c4n3)C3(CCCCC3)CNC5=O)nc2)CC1 [A] | 4.2 | 1516 | 6350 | 754 | 3160 |
| C[C@@H]1CN(c2ccc(Nc3ncc4cc5n(c4n3)C3(CCCC3)CNC5=O)nc2)C[C@H](C)N1 [DDD] | 9.5 | 986 | 9350 |  |  |
| C[C@@H]1CN(c2ccc(Nc3ncc4cc5n(c4n3)C3(CCCCC3)CNC5=O)nc2)C[C@H](C)N1C [DD] | 1.9 | 5200 | 9620 | 4519 | 8360 |
| CC(C)(O)CN1CCN(c2ccc(Nc3ncc4cc5n(c4n3)C3(CCCC3)CNC5=O)nc2)CC1 [EEE] | 2.3 | 1266 | 2950 | 405 | 943 |
| CC(C)N1CCN(Cc2ccc(Nc3ncc4cc5n(c4n3)C3(CCCCC3)CNC5=O)nc2)CC1 [EE] | 3.8 | 432 | 1660 | 289 | 1110 |
| CC(C)C1CN(c2ccc(Nc3ncc4cc5n(c4n3)C3(CCCCC3)CNC5=O)nc2)CCN1 (stereo not drawn) [E] | 1 | 688 | 695 | 202 | 204 |
| CCN1[C@H](C)CN(c2ccc(Nc3ncc4cc5n(c4n3)C3(CCCCC3)CNC5=O)nc2)C[C@@H]1C [FF] | 1.2 | 3949 | 4620 | 1197 | 1400 |
| CC(C)N1CCN(c2ccc(Nc3ncc4cc5n(c4n3)C3(CCCC3)CNC5=O)nc2)CC1C (stereo not drawn) [GGG] | 13.7 | 555 | 7610 |  |  |
| CC1CN(c2ccc(Nc3ncc4cc5n(c4n3)C3(CCCCC3)CNC5=O)nc2)CCN1CCC(C)(C)C (stereo not drawn) [G] | 1.5 | 1767 | 2580 | 442 | 646 |
| O=C1NCC2(CCCC2)n2c1cc1cnc(Nc3ccc(N4CCC(N5CCCCC5)CC4)cn3)nc12 [HHH] | 6.8 | 419 | 2840 |  |  |
| CC(C)N1CCN(c2ccc(Nc3ncc4cc5n(c4n3)C3(CCCC3)CNC5=O)nc2)CC1 [III] | 6 | 626 | 3770 |  |  |
| CCN(CC)C1CCN(C(=O)c2ccc(Nc3ncc4cc5n(c4n3)C3(CCCCC3)CNC5=O)nc2)C1 (stereo not drawn) [JJ] | 1.4 | 204 | 288 |  |  |
| O=C1NCC2(CCCCC2)n2c1cc1cnc(Nc3ccc(N4CCC(N5CCCCC5)CC4)cn3)nc12 [N] | 1 | 1500 | 1500 |  |  |
| O=C1NCC2(CCCC2)n2c1cc1cnc(Nc3ccc(N4CCNCC4)cn3)nc12 [QQQ] | 10.5 | 1057 | 11100 |  |  |
| CC(C)N1CCN(c2ccc(Nc3ncc4cc5n(c4n3)C3(CCCC3)CNC5=O)nn2)CC1 [RRR] | 2.6 | 1758 | 4500 |  |  |
| CN(C)C1CCN(c2ccc(Nc3ncc4cc5n(c4n3)C3(CCCC3)CNC5=O)nn2)CC1 [TTT] | 3.4 | 899 | 3030 |  |  |
| CC(C)[C@H]1CNC(=O)c2cc3cnc(Nc4ccc(N5CCNCC5)cn4)nc3n21 [UUU] | 18 | 914 | 16500 |  |  |
| CCN(CC)C1CCN(c2ccc(Nc3ncc4cc5n(c4n3)C3(CCCC3)CNC5=O)nc2)C1 (stereo not drawn) [UU] | 7.3 | 542 | 3960 |  |  |
| CC(C)C[C@@H]1CNC(=O)c2cc3cnc(Nc4ccc(N5CCNCC5)cn4)nc3n21 [WWW] | 18.5 | 135 | 2500 |  |  |
| CC(C)C[C@@H]1CNC(=O)c2cc3cnc(Nc4ccc(N5CCN(C)CC5)cn4)nc3n21 [XXX] | 11.4 | 581 | 6620 |  |  |
| CN1CCN(c2ccc(Nc3ncc4cc5n(c4n3)C3(CCCC3)CNC5=O)nc2)CC1 [ZZ] | 10.5 | 949 | 9960 |  |  |

The remaining lines, values ahead:

| IC50 (CDK4/CyclinD1) [nM] | Fold Selectivity (CDK2/CycE/CDK4) (CDK2/CyclinE) | IC50 (CDK2/CyclinE) [nM] | Fold Selectivity (CDK2/CycA/CDK4) (CDK2/CyclinA) | IC50 (CDK2/CyclinA) [nM] | Compound |
| --- | --- | --- | --- | --- | --- |
| 0.5 | 13319 | 6100 | 10109 | 4630 | CC(C)N1CCN(c2ccc(Nc3ncc4cc5n(c4n3)C3(CCCCC3)CNC5=O)nc2)C[C@@H]1C [AA] |
| 0.8 | 2017 | 1680 | 603 | 502 | CC1(C)CN(c2ccc(Nc3ncc4cc5n(c4n3)C3(CCCCC3)CNC5=O)nc2)CCN1C1CC1 [BB] |
| 0.4 | 6862 | 3040 | 4266 | 1890 | C[C@H]1CN(c2ccc(Nc3ncc4cc5n(c4n3)C3(CCCCC3)CNC5=O)nc2)CCN1CC1CC1 [B] |
| 2 | 1074 | 2170 | 226 | 457 | CC(C)(C)CCN1CCN(c2ccc(Nc3ncc4cc5n(c4n3)C3(CCCC3)CNC5=O)nc2)CC1(C)C [CCC] |
| 1.6 | 791 | 1250 | 478 | 755 | CCN(CC)C1CCN(c2ccc(Nc3ncc4cc5n(c4n3)C3(CCCCC3)CNC5=O)nc2)CC1 [CC] |
| 1.4 | 1333 | 1920 | 428 | 616 | C[C@H](O)CN1CCN(c2ccc(Nc3ncc4cc5n(c4n3)C3(CCCCC3)CNC5=O)nc2)C[C@@H]1C [C] |
| 0.9 | 3779 | 3480 | 1629 | 1500 | CN1CCN(c2ccc(Nc3ncc4cc5n(c4n3)C3(CCCCC3)CNC5=O)nc2)CC1(C)C [D] |
| 1.5 | 419 | 628 | 127 | 190 | O=C1NCC2(CCCCC2)n2c1cc1cnc(Nc3ccc(N4CCN(C5CCC5)CC4)cn3)nc12 [F] |
| 1.7 | 766 | 1280 | 159 | 265 | O=C1NCC2(CCCCC2)n2c1cc1cnc(Nc3ccc(N4CCN(CC5CC5)CC4)cn3)nc12 [HH] |
| 1.5 | 1013 | 1520 | 251 | 377 | CC1(C)CN(c2ccc(Nc3ncc4cc5n(c4n3)C3(CCCCC3)CNC5=O)nc2)CCN1CC1CC1 [H] |
|  |  |  | 1245 | 3150 | CN(C)C1CCN(c2ccc(Nc3ncc4cc5n(c4n3)C3(CCCCC3)CNC5=O)nc2)CC1 [O] |
| 4.6 | 1490 | 6900 |  |  | CN(C)C1CCN(c2ccc(Nc3ncc4cc5n(c4n3)C3(CCCC3)CNC5=O)nc2)CC1 [YY] |
